Our source for the IC50 values is patent publication US20250177408A1, “INHIBITOR OF INTERACTION BETWEEN YAP/TAZ AND TEAD, PREPARATION THEREOF, PHARMACEUTICAL COMPOSITION THEREOF AND USE THEREOF” (ETERN BIOPHARMA (SHANGHAI) CO., LTD., priority 2022, published 2025).

Experiment [1] addresses YAP-TEAD protein interaction (His-TEAD1 (209-426) protein, Bio-YAP peptide (60-100)) (Homo sapiens, UniProt P28347). Description: YAP-TEAD protein interaction HTRF experiment. Type of experiment: binding. The note with it: His-TEAD1 (209-426) 10 nM, Bio-YAP peptide 50 nM, read-out: Activity of each compound in blocking YAP-TEAD protein interaction (grades of IC50 values). In outline: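 His-TEAD1 (209-426) at 10 nM final was preincubated 20 min at RT with compounds (10-point 3-fold dilutions, duplicates, 1% DMSO), then Bio-YAP peptide, 10 min. Anti-His-Eu cryptate/streptavidin-XL665 added for 1 h at RT; HTRF read at ex 320 nm, Em665/Em620 ratio ×10000, IC50 from % inhibition.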

In experiment [2] the test system is YAP/TEAD reporter gene. As to the kind of experiment: YAP/TEAD reporter gene inhibition experiment in SF268-YAP-Luc cells. It is filed as cell-based. The note with it: SF268-YAP-Luc cells, 24 hours, Renila luciferase signal corrected for cell viability; read-out: Activity of each compound in inhibiting the expression of YAP/TEAD reporter gene (grades of IC50 values). The protocol:
In this example, the inhibition of the compound on the target was detected by the signal of the reporter gene in the stable cell line SF268-YAP-Luc containing the YAP/TEAD reporter gene.
A sequence containing 6 tandem YAP/TEAD binding sites and a basal transcription promoter was constructed on the vector pGL4.76 of Promega Company. The constructed reporter gene vector was transfected into SF268 cells (NCI DCTD tumor/cell line repository) and screened with 0.5 μg/mL hygromycin to obtain SF268-YAP-Luc stable strain.
SF268-YAP-Luc cells were seeded into a 96-well plate at a density of 3000 cells per well with a volume of 100 μL per well (cell culture medium composition: RPMI1640 (Gibco-A10491-01)+10% FBS (Gibco-10099-141C)+1% penicillin-streptomycin (5,000 U/mL, Gibco-15070-063)), and the cells were incubated overnight in a 37° C., 5% carbon dioxide incubator.
On the next day, the compounds to be tested were 3-fold diluted, and a total of 8 concentration gradients were set up; a certain volume of DMSO or the compounds to be tested was added to each well, respectively, and 2 replicates were set up for each concentration, and the final concentration of DMSO was controlled to be no higher than 0.5%. The cells were incubated for 24 hours in a 37° C., 5% carbon dioxide incubator. Two identical parallel plates were set up for cell seeding and compound treatment.
Renila-Glo luciferase assay system kit (Promega, E2720) was used to detect the reporter gene signals of the control group and treatment group. 70 μL of Renila-Glo was added to each well, mixed well, and incubated at room temperature for 10 minutes. The signal was read using EnVision® Multilabel Plate Reader (Perkin Elmer).
Cell viability was detected in the control group and treatment group using CellTiter-Glo Luminescent Cell Viability Assay kit (Promega, G7570). 50 μL of CellTiter-Glo was added to each well, mixed well, and incubated at room temperature for 10 minutes. The signal was read using En Vision® Multilabel Plate Reader (Perkin Elmer).
The signal of Renila luciferase after correcting for cell viability was analyzed, and the inhibition rate of the compound on the reporter gene was calculated. The inhibition percentage (%) is calculated by the following formula: […]
Using Graphpad Prism software, the IC50 values for the compounds' inhibitory activity against Renila luciferase signaling were calculated.

For experiment [3], the system named is MSTO-211H cells. As to the kind of experiment: Cell proliferation inhibition experiment (CellTiter-Glo). It is filed as cell-based. The settings on record: Homo sapiens, 96 hours, read-out: Inhibitory activity of each compound on the proliferation of MSTO-211H cells (grades of IC50 values). Summed up: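 MSTO-211H cells (1500/well, RPMI1640 + 10% FBS) were plated overnight at 37° C, 5% CO2, then exposed in duplicate to 9 three-fold compound dilutions (DMSO ≤0.5% final) for 96 hours. Viability was read as CellTiter-Glo luminescence after 10 min at room temperature. IC50 was derived from inhibition of the CTG signal.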
For orientation: In ATP-based viability assays light output follows the ATP content of the culture.

Chain of YAP-TEAD protein interaction (His-TEAD1 (209-426) protein, Bio-YAP peptide (60-100)) (P28347 209-426): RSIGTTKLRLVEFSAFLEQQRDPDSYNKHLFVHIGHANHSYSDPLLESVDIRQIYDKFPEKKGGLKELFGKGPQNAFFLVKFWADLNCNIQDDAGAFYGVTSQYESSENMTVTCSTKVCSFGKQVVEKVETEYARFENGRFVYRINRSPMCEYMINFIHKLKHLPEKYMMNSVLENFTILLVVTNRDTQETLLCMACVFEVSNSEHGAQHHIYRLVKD

As for `NC(=O)c1cc2c(c(F)c1-c1c(Cl)c(F)cc3c1C[C@](c1ccccc1)([C@@H]1CCCN1)O3)OCC(=O)N2` (atropisomer, axis not shown) [Compound I-23, (S)-7-((S)-5-Chloro-6-fluoro-2-phenyl-2-((S)-pyrrolidin-2-yl)-2,3-dihydrobenzofuran-4-yl)-8-fluoro-3-oxo-3,4-dihydro-2H-benzo[b][1,4]oxazine-6-carboxamide], the values for the IC50 in experiment [1], in experiment [2] and in experiment [3] were < 50 nM, 50 to 500 nM and < 200 nM, respectively.
Taken in the same sequence, the figures for `NC(=O)c1cc2c(c(F)c1-c1c(Cl)c(F)cc3c1C[C@](c1ccccc1)([C@@H]1CCCN1)O3)OCCO2` (atropisomer, axis not shown) [Compound 1, 7-((2S,4S)-5-Chloro-6-fluoro-2-phenyl-2-((S)-pyrrolidin-2-yl)-2,3-dihydrobenzofuran-4-yl)-8-fluoro-2,3-dihydrobenzo[b][1,4]dioxine-6-carboxamide] were < 50 nM, < 50 nM and < 200 nM.
Taken in the same sequence, the figures for `CN1C(=O)COc2c1cc(C(N)=O)c(-c1c(Cl)c(F)cc3c1C[C@](c1ccccc1)([C@@H]1CCCN1)O3)c2F` (atropisomer, axis not shown) [Compound I-25, (S)-7-((S)-5-Chloro-6-fluoro-2-phenyl-2-((S)-pyrrolidin-2-yl)-2,3-dihydrobenzofuran-4-yl)-8-fluoro-4-methyl-3-oxo-3,4-dihydro-2H-benzo[b][1,4]oxazine-6-carboxamide] were < 50 nM, 50 to 500 nM and 200 to 500 nM.
